We go through 1 compound from doi:10.1101/177311v3 (biorxiv, 2018).

Each structure is given as a SMILES string. pEC50: −log10 of the molar value.

One may read the pEC50 as −log10 of the EC50, conventionally taken in molar units.

In this test the target is T1, mycL-Hmg2-GFP (1myc-Hmg2-GFP; Hmg2 transmembrane region) (Saccharomyces cerevisiae, UniProt P12684).
T1 sequence (P12684 1-535 limits assumed): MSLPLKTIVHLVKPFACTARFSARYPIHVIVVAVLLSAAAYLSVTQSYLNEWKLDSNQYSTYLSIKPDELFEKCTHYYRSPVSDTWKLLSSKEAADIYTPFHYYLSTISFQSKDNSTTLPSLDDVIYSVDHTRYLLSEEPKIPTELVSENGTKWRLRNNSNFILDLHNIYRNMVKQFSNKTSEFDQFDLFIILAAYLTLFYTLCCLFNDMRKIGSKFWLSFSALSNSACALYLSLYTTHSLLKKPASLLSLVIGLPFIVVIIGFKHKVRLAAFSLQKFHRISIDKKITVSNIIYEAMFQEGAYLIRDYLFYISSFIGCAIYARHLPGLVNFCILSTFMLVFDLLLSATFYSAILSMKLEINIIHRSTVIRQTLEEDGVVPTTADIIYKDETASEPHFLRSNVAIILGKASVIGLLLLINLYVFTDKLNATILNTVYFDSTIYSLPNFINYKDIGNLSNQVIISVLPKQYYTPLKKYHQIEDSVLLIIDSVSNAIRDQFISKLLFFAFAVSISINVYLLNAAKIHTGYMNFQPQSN
In words: limited trypsin proteolysis of microsomes, anti-myc immunoblot. It counts as biochemical.

In the case of `CC(C)=CCC/C(C)=C/CC/C(C)=C/CC/C(C)=C/COP(=O)(O)OP(=O)(O)O` [GGPP, geranylgeranyl pyrophosphate], the pEC50 is over 6.70.
